Test results from PubChem BioAssay AID1845200 (Molecular Pharmacology Branch, DTP, NCI, 2023).
“And” between values parts separate entries of the source, which are not always exact repeats. Equal values may be shown once. The source made the active and inactive calls. The calls were made as follows: active = viability on the fitted dose curve at most 10% of control; inactive = the rest.

Tested on: ASPS-1 complex tumor spheroids, viability
Assay: Anticancer human tumor ASPS-1 cell line growth inhibition;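 also: spheroids exposed to agents for 7 days after 3 days of growth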;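 as to viability, T/C: 100% = DMSO vehicle treated spheroids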
Settings: for viability, T/C: stronger effect = lower value
Text: Multicellular complex tumor spheroid response to DNA repair inhibitors in combination with DNA-damaging drugs
This study explores the anticancer activities of DNA-damaging drugs and inhibitors of DNA damage repair, both as single agents and in combinations. Complex tumor spheroids comprised of malignant cells, endothelial cells and mesenchymal stem cells served as an in vitro model for human solid tumors. This model system incorporates physiologically relevant features and patient-derived or established malignant cell lines with clinically relevant genetic alterations from many tumor types. Twenty-six patient-derived or established malignant cell lines were evaluated representing sarcoma, melanoma, small cell lung cancer (SCLC), non-small cell lung cancer (NSCLC), as well as bladder, ovarian and pancreatic cancers. The concentration ranges selected for each drug and investigational agent were based upon clinically achievable concentrations if the clinical Cmax of the agent was known.
Compounds. The drugs and compounds olaparib (NSC753686), talazoparib (NSC767125), berzosertib (NSC777718), elimusertib (NSC800525), nedisertib (NSC802822), VX-984 (NSC792969), AZD-1390 (NSC803789), temozolomide (NSC362856), topotecan (NSC609699), trabectedin (NSC813783), staurosporine (NSC755774), and gemcitabine (NSC613327) were obtained from the National Cancer Institute (NCI) Developmental Therapeutics Program Chemical Repository. The FDA-approved anticancer drug set is available from the Developmental Therapeutics Program at https://dtp.cancer.gov/organization/dscb/obtaining/available_plates.htm. […] The stock solutions were prepared in dimethyl sulfoxide (DMSO, Sigma-Aldrich, St. Louis, MO, cat. D2650) at 400-fold the tested concentration and stored at -70 degrees C. Prior to their use, the stock solutions were diluted in fresh medium and the final DMSO concentration in the assay was 0.25% (v/v). All drugs and investigational agents were tested over a range starting from a high concentration at or near the clinical Cmax and decreasing in half-log increments. If the clinical Cmax for an agent had not been determined, the highest concentration tested was 10 microM.
Cell Lines. The patient-derived cancer cell (PDC) lines: 156681-154-R-J1-PDC, 283228-195-R-J1-PDC, 287954-098-R-J1-PDC, 292921-168-R-J2-PDC, 349418-098-R-PDC, 425362-245-T-J1-PDC, 556581-035-R-J1-PDC, and BL0293-F563-PDC were received from the NCI Patient-Derived Models Repository (PDMR, https://pdmr.cancer.gov). The established cell lines HS-SY-2 (RRID:CVCL_8719), MPNST, and SYO-1 (RRID:CVCL_7146) were obtained from the Sloan Kettering Institute. The alveolar soft parts sarcoma cell line ASPS-1 (RRID:CVCL_S738) was established at the NCI and grown from internal seed stocks. The following established cell lines were purchased from the American Type Culture Collection (ATCC, Manassas, VA): G-401 (ATCC, cat. CRL-1441, RRID:CVCL_0270), SW982 (ATCC, cat. HTB-93, RRID:CVCL_1734), VA-ES-BJ (ATCC, cat. CRL-2138, RRID:CVCL_1785), NCI-H719 (ATCC, cat. CRL-5837, RRID:CVCL_1582), NCI-H196 (ATCC, cat. CRL-5823, RRID:CVCL_1509), NCI-H841 (ATCC, cat. CRL-5845, RRID:CVCL_1595), NCI-H1618 (ATCC, cat. CRL-5879, RRID:CVCL_1480), NCI-H1876 (ATCC, cat. CRL-5902, RRID:CVCL_1503), DMS 114 (ATCC, cat. CRL-2066; RRID:CVCL_1174), NCI-H211 (ATCC, cat. CRL-5824; RRID:CVCL_1529), and SW 1271 (ATCC, cat. CRL-2177, RRID:CVCL_1716). The small cell lung cancer cell line COR-L88 was purchased from Sigma-Aldrich (cat. 92031917-1VL, RRID:CVCL_1141). The non-small cell lung cancer cell lines NCI-H226 (RRID:CVCL_1544) and NCI-H322M (RRID:CVCL_1557) were established at the NCI and grown from internal seed stocks. Pooled donor human umbilical vein endothelial cells (HUVEC, Lonza, cat. CC-2519) and human mesenchymal stem cells (hMSC, Lonza, cat. PT-2501) were purchased from Lonza (Walkersville, MD).
Cell Culture. All cells were maintained in an incubator at 37 degrees C and 5% CO2 with 95% humidity. […]

[1] = compound alone, run of 12/16/2019

What does the source list for CC(C)n1c(=O)n(C)c2cnc3cc(F)c(-c4ccc(OCCCN5CCCCC5)nc4)cc3c21?
viability, T/C (compound 0.0316 µM): 95.5% and 110% and 106%; viability, T/C (compound 0.1 µM): 108% (2×) and 107%; viability, T/C (compound 0.316 µM): 103% and 105% and 101%; viability, T/C (compound 1 µM): 95.2% and 106% and 100%; viability, T/C (compound 3.16 µM): 93% and 98.2% and 95.5%; viability, T/C (compound 10 µM): 63.6% and 56.2% and 38.7%; IC50 (curve of compound): > 10 µM and 7.97 µM

With CC1COCCN1c1cc(-c2ccnn2C)c2ccnc(-c3ccn[nH]3)c2n1 (stereo not drawn) as the compound, how does the viability, T/C (compound 0.0316 µM) read?
The viability, T/C was 85.3% and 92.7% and 83.6%.

And the viability, T/C (compound 0.1 µM)?
Its viability, T/C is 60.3% and 70.7% and 69.8%.

What about the viability, T/C (compound 0.316 µM) of the same compound?
The viability, T/C was 43.5% and 50.8% and 46.5%.

What about the viability, T/C (compound 1 µM) of the same compound?
Its viability, T/C is 37.7% and 46% and 48.2%.

And the viability, T/C (compound 3.16 µM)?
Its viability, T/C is 42.6% and 45.1% and 48%.

And the viability, T/C (compound 10 µM)?
The viability, T/C was 39.6% and 46.7% and 44.7%.

And the IC50 (curve of compound)?
The IC50 was 0.198 µM and 0.376 µM and 0.27 µM.

Which viability, T/C (compound 0.003 µM) does the source give for CC[C@@]1(O)C(=O)OCc2c1cc1n(c2=O)Cc2cc3c(CN(C)C)c(O)ccc3nc2-1 here?
Its viability, T/C is 101% [middle of 10 runs].

And the viability, T/C (compound 0.00949 µM)?
Its viability, T/C is 103% [middle of 10 runs].

What about the viability, T/C (compound 0.03 µM) of the same compound?
The viability, T/C was 96.3% [middle of 10 runs].

What about the viability, T/C (compound 0.0949 µM) of the same compound?
Its viability, T/C is 56.3% [middle of 10 runs].

What about the IC50 (compound alone, run of 11/07/2019) of the same compound?
Its IC50 is 0.222 µM and 0.16 µM and > 0.3 µM.

And the IC50 [1]?
The IC50 was over 0.3 µM.

With CNCc1ccc(-c2cc(-c3nc(-c4ccc(S(=O)(=O)C(C)C)cc4)cnc3N)on2)cc1 as the compound, how does the viability, T/C (compound 0.00949 µM) read?
The viability, T/C was 107% and 103% and 105%.

What about the viability, T/C (compound 0.03 µM) of the same compound?
The viability, T/C was 102% and 113% and 112%.

And the viability, T/C (compound 0.0949 µM)?
Its viability, T/C is 97.4% and 108% and 96.5%.

What about the viability, T/C (compound 0.3 µM) of the same compound?
The viability, T/C was 58.1% and 74.3% and 76.5%.

What about the viability, T/C (compound 0.949 µM) of the same compound?
The viability, T/C was 40.4% and 38.1% and 45.4%.

What about the viability, T/C (compound 3 µM) of the same compound?
The viability, T/C was 9.11% and 6.66% and 18%.

What about the IC50 (curve of compound) of the same compound?
Its IC50 is 0.545 µM and 0.644 µM and 0.783 µM.

How did the viability, T/C (compound 0.0316 µM) turn out when COc1cc(C)[nH]c(=O)c1CN1CCc2c(Cl)cc(C(OC)C3COC3)c(Cl)c2C1=O (stereo not drawn) was run?
Its viability, T/C is 105% and 103% and 99%.

What about the viability, T/C (compound 0.1 µM) of the same compound?
Its viability, T/C is 108% and 106% and 105%.

And the viability, T/C (compound 0.316 µM)?
The viability, T/C was 107% and 102% and 100%.

What about the viability, T/C (compound 1 µM) of the same compound?
Its viability, T/C is 106% and 97.9% and 96.5%.

What about the viability, T/C (compound 3.16 µM) of the same compound?
Its viability, T/C is 104% and 102% and 98%.

And the viability, T/C (compound 10 µM)?
The viability, T/C was 99.3% and 104% and 97.8%.

What about the IC50 (curve of compound) of the same compound?
Its IC50 is over 10 µM.

What does the source list for COc1cc2c(cc1O)CCNC21CSC2c3c(OC(C)=O)c(C)c4c(c3C(COC1=O)N1C(O)C3Cc5cc(C)c(OC)c(O)c5C(C21)N3C)OCO4 (stereo not drawn)?
viability, T/C (compound 30 pM): 103% [middle of 10 runs]; viability, T/C (compound 94.9 pM): 103% [middle of 10 runs]; viability, T/C (compound 0.0003 µM): 92.7% [middle of 10 runs]; viability, T/C (compound 0.000949 µM): 71.9% [middle of 10 runs]; viability, T/C (compound 0.003 µM): 23% [middle of 10 runs]; IC50 [1]: 1.63 nM [middle of 10 runs]

With COc1ccc([C@@H](O)c2cc(-c3ncnc4cc(N5CCOCC5)ccc34)c(F)cc2Cl)nn1 as the compound, how does the viability, T/C (compound 0.0316 µM) read?
The viability, T/C was 108% and 103% (2×).

What about the viability, T/C (compound 0.1 µM) of the same compound?
Its viability, T/C is 95.8% and 109% and 111%.

And the viability, T/C (compound 0.316 µM)?
Its viability, T/C is 103% and 102% and 94.3%.

What about the outcome (compound 1 µM) of the same compound?
The outcome was “inactive”.

What about the viability, T/C (compound 1 µM) of the same compound?
Its viability, T/C is 90.4%.

And the viability, T/C (compound 3.16 µM)?
The viability, T/C was 77.3% and 89.6% and 84.7%.

And the viability, T/C (compound 10 µM)?
Its viability, T/C is 49.6% and 58.1% and 50.4%.

What about the IC50 (curve of compound) of the same compound?
Its IC50 is 9.89 µM and > 10 µM.
